Assay results taken from patent US10987317B2, “Inhibition of glutaminase C” (Cornell University, priority 2009, dated 2021).
“Also recorded” adds a separate entry of the source.

Assays:
[1] = system: GA activity in SKBR3 cells; experiment: GA activity in mitochondrial fractions; assay type: cell-based, human; conditions: 2 μM
Experimental: (§1) 100%=620 moles of glutamine hydrolyzed per minute per mole of enzyme. Data represent the average of 3 experiments (±s.d.). […] Following precipitation of the beads and re-suspension, the samples are analyzed by Western blotting with anti-V5 antibody. […] Data represent the average of 3 experiments (±s.d.). […] Data represent the average of 3 experiments (±s.d.). […] Data represent the average of 3 experiments (±s.d.). FIG. 3E NIH 3T3 cells transiently expressing Dbl are assayed for focus formation in the presence of 10 μM 968 alone or together with […] dimethyl α-ketoglutarate. […] 100%=680 nM glutamine hydrolyzed per minute per 10^5 cells. Data are the average of 3 experiments (=s.d.). […] 100%=750 nM glutamine hydrolyzed per minute per 10^5 cells. Data represent the average of 3 experiments (±s.d.).
(§2) FIGS. 4A-E illustrate the role of glutaminase C activity in cellular transformation. […] Data represent the average of 3 experiments (±s.d.). […] Data represent the average of 3 experiments (±s.d.). […] 100% represents the activity measured in untreated Dbl-transformed cells. The data represent the average of 2 experiments. […] 100% represents the activity measured in untreated SKBR3 cells. The data represent the average of 2 experiments. […] Data represent the average of 3 experiments (±s.d.).
FIGS. 11A-E illustrate the effects of different treatments on GA activity. […] The addition of Pi stimulated the GA activity in control 3T3 cells, Dbl-expressing cells, and Cdc42(F28L)-expressing cells by ˜6-fold, 2-fold, and 3-fold, respectively. 100% represents the Pi-stimulated activity measured for Dbl-transformed cells that are not treated with 968. Data is the average of 3 experiments (±s.d.). […] The addition of Pi stimulated the GA activity of HMECs, MDA-MB231 cells, and SKBR3 cells by ˜5-fold, 2-fold, and 1.4-fold, respectively. […] The data are plotted as the percentage of GA activity measured for untreated SKBR3 cells and represent the average of 2 experiments. […] 100% represents the P1-stimulated activity measured for untreateDbl-transformed cells. […]

[2] = system: GA activity in Dbl- and Cdc42(F28L)-expressing NIH 3T3 cells; experiment: GA activity in mitochondrial fractions of transformed fibroblasts; assay type: cell-based; conditions: Dbl-transformed cells, 2 μM
Experimental: as §1, §2
FIGS. 11A-E illustrate the effects of different treatments on GA activity. […] The addition of Pi stimulated the GA activity in control 3T3 cells, Dbl-expressing cells, and Cdc42(F28L)-expressing cells by ˜6-fold, 2-fold, and 3-fold, respectively. 100% represents the Pi-stimulated activity measured for Dbl-transformed cells that are not treated with 968. Data is the average of 3 experiments (±s.d.). […] The addition of Pi stimulated the GA activity of HMECs, MDA-MB231 cells, and SKBR3 cells by ˜5-fold, 2-fold, and 1.4-fold, respectively. 100% represents the Pi-stimulated activity for SKBR3 cells that were not treated with 968. Data are the average of 3 experiments (±s.d.). […] Mitochondrial fractions are prepared from equal numbers of cells and assayed for GA activity in the presence or absence of 133 mM Pi. The data are plotted as the percentage of GA activity measured for untreated SKBR3 cells and represent the average of 2 experiments. […] 100% represents the P1-stimulated activity measured for untreateDbl-transformed cells. The data represent the average of 2 experiments. […] 100% represents the Pi-stimulated activity for untreated SKBR3 cells. The data represent the average of 2 experiments.
Mitochondrial preparations were obtained using the mitochondria isolation kit from QIAGEN (Cat #37612). A suspension containing 2×10^7 cells was transferred into a 50 ml conical tube and centrifuged at 500×g for 10 minutes at 4° C. […]

[3] = system: NIH 3T3 cells transfected with oncogenic Dbl; experiment: Dbl-induced cellular transformation (focus-forming assays, growth in low serum, soft agar); assay type: cell-based; conditions: focus formation / growth in low serum
Experimental: FIGS. 1A-E illustrate that the small molecule 968 inhibiting cellular transformation. […] Cells were fixed and stained with crystal violet for counting of foci. Right: 968 was serially diluted (10, 5, 2.5, and 1.25 μM) and evaluated for its ability to inhibit focus formation. […] After 6 days, the cells are counted. 100% represents the number of Dbl-transformed cells counted in the absence of 968 (27.5×10^4 cells). Data represent the average of 3 experiments (±s.d.). […] At the indicated times, the cells are counted. Data represent the average of 3 experiments (±s.d.).
FIGS. 2A-G illustrate effects of 968 on the transforming activity of constitutively active Rho GTPases and human breast cancer cells. […] Cells are scored after 14 days and plotted as the percentage of the total number of colonies greater than […] in diameter. Data represent the average of 3 experiments (±s.d.). […] Data represent the average of 3 experiments (±s.d.). […] Data represent the average of 3 experiments (±s.d.). […] After 24 hours at 37° C. the migratory cells are fixed, stained with GIEMSA, and counted. Data represent the average of 3 experiments (±s.d.). […] Data represent the average of 3 experiments (±s.d.). […] Data represent the average of 3 experiments (±s.d.). […] Data represent the average of 3 experiments (±s.d.).
FIGS. 5A-C illustrate comparative abilities of 968 and other benzo[a]phenanthrldinones to inhibit the transforming activity of oncogenic Dbl and H-Ras. […] Histograms show the relative levels of Dbl-induced focus formation for the different treatments, compared to Dbl-induced focus formation measured in the presence of DMSO (i.e. solvent control). Data represent the average of 3 experiments (mean±s.d.). […] Histograms show the relative levels of Ras(G12V)-induced focus formation measured for the different treatments, compared to Ras(G12V)-induced focus formation measured in the presence of DMSO (solvent control). Data represent the average of 3 experiments (mean±s.d.). FIG. 5C NIH 3T3 cells stably expressing H-Ras(G12V) that are cultured in DMEM supplemented with 1% calf serum, with the indicated amounts of 968. After 6 days, cells are trypsinized and counted. 100% represents the number of cells counted in the absence of 968, i.e. 26×10^4 cells. Data represent the average of 3 experiments (mean±s.d.).

[4] = target: T1, V5-tagged GAC from Dbl-transformed NIH 3T3 cells (Mus musculus, UniProt D3Z7P3); experiment: GA activity of immunoprecipitated V5-GAC; assay type: cell-based; conditions: GAC isolated from Dbl cells, dephosphorylation conditions
T1 construct: expressed in transfected cells; host or cells: NIH 3T3 cells stably expressing oncogenic Dbl
T1 sequence (D3Z7P3 55-603 isoform D3Z7P3-2 limits assumed): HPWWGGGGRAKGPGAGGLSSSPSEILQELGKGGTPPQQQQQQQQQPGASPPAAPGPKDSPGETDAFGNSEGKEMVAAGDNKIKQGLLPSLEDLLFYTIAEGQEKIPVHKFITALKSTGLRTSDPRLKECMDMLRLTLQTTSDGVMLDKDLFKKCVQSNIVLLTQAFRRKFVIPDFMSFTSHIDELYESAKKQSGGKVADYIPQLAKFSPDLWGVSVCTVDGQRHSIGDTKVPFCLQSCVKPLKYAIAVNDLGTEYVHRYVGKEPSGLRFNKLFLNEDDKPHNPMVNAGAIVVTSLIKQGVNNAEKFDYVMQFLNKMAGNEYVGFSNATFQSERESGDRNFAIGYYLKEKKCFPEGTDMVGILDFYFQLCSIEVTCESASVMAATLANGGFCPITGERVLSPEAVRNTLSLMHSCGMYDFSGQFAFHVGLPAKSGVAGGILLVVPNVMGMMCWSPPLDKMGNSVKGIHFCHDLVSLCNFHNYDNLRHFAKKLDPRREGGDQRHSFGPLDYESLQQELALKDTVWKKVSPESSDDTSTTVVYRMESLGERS
From the text: as §2
NIH 3T3 cells or NIH 3T3 cells stably expressing the Dbl oncogene, were transiently transfected with DNA encoding a V5-tagged GAC. The cells were then harvested and the ectopically expressed GAC was isolated by immunoprecipitation via the V5 tag. The VS-GAC obtained from one of the Dbl samples was additionally treated with alkaline phosphtase under dephosphorylation conditions. The samples were then assayed for glutaminase activity in the absence of phosphate (top panel) and the relative expression levels of VS-GAC was determined by Western blotting using an anit-V5 antibody (bottom panel).
NIH 3T3 cells stably expressing oncogenic Dbl were transiently transfected with DNA encoding VS-tagged GAC, and cells were treated with either 968 or BA-968 ([…]) as indicated for 48 hours. The cells were then harvested and the ectopically expressed GAC was isolated by immunoprecipitation via the V5 tag. The samples were then assayed for glutaminase activity in the absence of phosphate (top panel) and the relative expression levels of VS-GAC was determined by Western blotting using an anti-V5 antibody (bottom panel).

[5] = target: T2, E. coli-expressed mouse ortholog of human GAC (Mus musculus, UniProt D3Z7P3); experiment: Recombinant glutaminase activity assay; assay type: biochemical
T2 construct: A plasmid encoding mouse GAC (residues 128-603) was cloned into the pET28a vector; His-tag (N, cleaved yes); made in house; host or cells: E. coli (pET28a)
T2 sequence (D3Z7P3 128-603 isoform D3Z7P3-2): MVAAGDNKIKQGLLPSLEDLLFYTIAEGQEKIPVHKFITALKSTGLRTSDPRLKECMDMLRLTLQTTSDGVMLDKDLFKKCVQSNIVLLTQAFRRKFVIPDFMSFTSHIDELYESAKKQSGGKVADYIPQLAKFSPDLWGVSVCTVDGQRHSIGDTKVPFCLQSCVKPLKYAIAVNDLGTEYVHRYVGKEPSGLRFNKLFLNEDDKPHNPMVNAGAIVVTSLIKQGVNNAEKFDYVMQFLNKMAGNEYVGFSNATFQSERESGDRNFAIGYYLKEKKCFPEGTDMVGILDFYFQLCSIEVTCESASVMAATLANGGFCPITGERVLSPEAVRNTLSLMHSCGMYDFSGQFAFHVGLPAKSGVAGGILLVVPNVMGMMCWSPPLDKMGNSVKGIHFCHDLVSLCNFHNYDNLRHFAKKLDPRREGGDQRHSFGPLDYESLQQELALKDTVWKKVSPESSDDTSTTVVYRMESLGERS
Experimental: as §1
The activity of the E. coli-expressed recombinant mouse ortholog of human GAC are assayed in the presence of 0 (●), 10 (∇) or 20 (▪) μM 968 and inorganic phosphate in the form of dipotassium hydrogen phosphate. […] The data are plotted as GA activity as function of varying concentrations of glutamine or inorganic phosphate. The data are the average of 3 experiments and are plotted as mean±SEM.
Glutaminase activity assays were performed on recombinant enzyme as previously described (Kenny et al., “Bacterial Expression, Purification and Characterization of Rat Kidney-Type Mitochondrial Glutaminasc,” Protein Expr. Purif 31:140-148 (2003), which is hereby incorporated by reference in its entirety). A plasmid encoding mouse GAC (residues 128-603) was cloned into the pET28a vector and the protein was expressed with an N-terminal histidine (His)-tag. The tag was cleaved using thrombin and the protein was further purified by anion-exchange and gel-filtration chromatography. […] The reaction mixture was incubated at room temperature for 45 minutes and the absorbance at 340 nm was recorded for each sample against a water blank. The absorbance of the sample with just the cocktail mixture was subtracted from each reading to calculate the activity of the enzyme.

Cc1ccc(S(=O)(=O)/C=C/C#N)cc1 [BAY 11-7082, reference compound]
basal GA activity [1]: significantly reduces
direct stimulation of the enzyme by phosphate [1]: little or no effect
direct stimulation of the enzyme by phosphate [2]: little or no effect
basal GA activity ([2]; 2 days): significantly reduces

CN(C)c1ccc(C2Nc3ccc4ccccc4c3C3=C2C(=O)CC(C)(C)C3)cc1 (centres unmarked) [Compound 384]
inhibition of Dbl-induced transformation [3]: little or no inhibition

alkaline phosphatase [reference compound]
reduction of basal glutaminase (phosphate independent) activity [4]: 75%

CC1(C)CC(=O)C2=C(C1)c1c(ccc3ccccc13)NC2c1cccc(Br)c1 (centres unmarked) [Compound 335]
inhibition of enzymatic activity of purified GAC [5]: little ability to inhibit enzyme activity
inhibition of Dbl-induced transformation [3]: little or no inhibition; also recorded: less effective
